In test [1] the test system is c-Jun-induced migration of bone marrow-derived stromal cells. Put plainly: Transwell migration assay of c-Jun-induced bone marrow-derived stromal cells (in vitro inhibitory screen). The test is classed as cell-based, mouse. The conditions noted are these: bone marrow-derived stromal cells from c-Jun-inducible mice, dox induced. The text has this: Functional evaluation of signaling pathways mediating the fibrogenic response. We next wished to assess the functional relevance of the signaling pathway rewiring induced by transcriptional activation of c-Jun. To enable systematic pharmacological interrogation we sought to develop a c-Jun-dependent in vitro assay. We assessed two cell biological parameters in cultured bone marrow-derived stromal cells from c-Jun-inducible mice. First, we assessed cell growth and observed a shortening of the cell doubling time from about […] in control to about 2 days in c-Jun-induced fibroblasts (FIG. 6A). Second, we measured cell migration of bone marrow-derived stromal cells in a transwell migration assay as a functional readout of the c-Jun induction and observed a 100-fold increase in migration at 2 hours and a 1000-fold increase at 24 hours in c-Jun induced cells versus uninduced cells (FIG. 6B).
Given its much greater dynamic range, we then tested a series of small molecule inhibitors in the transwell migration assay. […]
Transwell migration and proliferation assays. For transwell migration assays Costar transwell chambers were used according to the manufacturer's directions and transmigrated adherent cells were fixed and stained and counted by microscopy after periods of 2 hrs and 24 hrs. […]

The subject of test [2] is c-Jun induced mice (bone marrow and skin fibrosis). Put plainly: Systemic c-Jun induced bone marrow and skin fibrosis in vivo. Details: species or system mouse. The conditions noted are these: systemic c-Jun induction, drug i.p. The text has this: Blockade of the VEGF and PI3K pathways reverse marrow and skin fibrosis in vivo. Encouraged by these findings, we sought to evaluate the efficacy of blocking the PI3K-AKT pathway in c-Jun mediated fibrosis in vivo. Wortmannin, a potent PI3K inhibitor, was systemically administered to mice for 14 days that were induced to express c-Jun two days prior to drug. […] Any effects on gastroesophageal or bladder were not assessed as the fibrosis in these organs takes longer to develop. Both Rosa26-rtTA control mice were treated with dox and c-Jun-inducible mice were treated with PBS. No fibrosis developed in either control condition in lung or other organs over the same time span. Thus, the PI3K and VEGFR pathways are critical mediators of c-Jun-induced fibrosis in mice and may be also involved in the development of human fibrosing conditions.
Tissue processing. Animals were sacrificed at times indicated based on an APLAC-approved protocol that includes assessment of morbidity by >10% loss of weight, scruffy appearance and lethargy. […] Images were analyzed in Adobe Photoshop (Adobe Systems, San Jose, CA). […] Flow cytometry was performed on a FACS Aria cytometer (BD Biosciences, San Jose, CA), at least 10,000 events were acquired, and data were analyzed using FlowJo software. […]

The values below come from patent US11965034B2, “Antifibrotic activity of CD47 blockade in the liver” (The Board of Trustees of the Leland Stanford Junior …, priority 2017, dated 2024).

As for `CCN(CC)CCCCNc1ncc2cc(-c3cc(OC)cc(OC)c3)c(NC(=O)NC(C)(C)C)nc2n1` [PD173074], the c-Jun-induced migration entry in test [1] is “abolish”. Further, in test [2], the bone marrow fibrosis entry is “significantly decreased”; the “skin fibrosis (dermal skin thickening and collagen deposition)” value is listed as “but not skin fibrosis”.
